Data: PMC8831520, “Small molecule SWELL1 complex induction improves glycemic control and nonalcoholic fatty liver disease in murine Type 2 diabetes” (Nature Communications, 2022)
Where “and” joins values, the source holds several entries; their conditions need not be identical. Equal values may be shown once. Entries after “also recorded” stand apart in the source; their conditions may differ.

How the values were obtained:
[1] = target: T1, R103E-SWELL1 expressing HEK-293 cells (R103E O/E) (Homo sapiens, UniProt Q8IWT6, R103E); assay: ICl,SWELL inhibition in SWELL1-R103E overexpressing cells, patch-clamp; type: cell-based
T1 construct: P2A:EGFP (C); host or cells: HEK-293, Lipofectamine 2000, co-transfected with CMV-Cre; EGFP+ cells recorded
T1 sequence (Q8IWT6 whole entry R103E): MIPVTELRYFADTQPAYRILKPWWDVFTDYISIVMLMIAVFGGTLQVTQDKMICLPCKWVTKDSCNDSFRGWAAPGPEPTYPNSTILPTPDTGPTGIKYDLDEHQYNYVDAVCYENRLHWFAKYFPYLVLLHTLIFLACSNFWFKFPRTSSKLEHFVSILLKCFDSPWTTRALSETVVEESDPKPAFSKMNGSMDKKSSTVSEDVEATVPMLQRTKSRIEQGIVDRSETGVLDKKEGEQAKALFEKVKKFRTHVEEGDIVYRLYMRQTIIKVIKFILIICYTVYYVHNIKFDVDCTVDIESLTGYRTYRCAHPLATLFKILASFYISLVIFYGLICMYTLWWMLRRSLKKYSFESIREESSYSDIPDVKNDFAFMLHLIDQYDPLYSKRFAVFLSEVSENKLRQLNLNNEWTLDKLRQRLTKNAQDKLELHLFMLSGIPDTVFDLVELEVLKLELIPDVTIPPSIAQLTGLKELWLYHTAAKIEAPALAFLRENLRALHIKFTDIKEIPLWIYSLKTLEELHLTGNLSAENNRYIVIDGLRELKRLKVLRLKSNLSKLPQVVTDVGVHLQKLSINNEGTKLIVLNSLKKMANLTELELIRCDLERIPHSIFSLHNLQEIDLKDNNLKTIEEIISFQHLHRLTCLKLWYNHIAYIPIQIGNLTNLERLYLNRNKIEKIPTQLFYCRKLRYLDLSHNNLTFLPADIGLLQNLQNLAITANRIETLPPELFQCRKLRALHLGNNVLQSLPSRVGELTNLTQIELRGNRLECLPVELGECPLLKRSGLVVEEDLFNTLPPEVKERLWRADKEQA
Text: See also Fig. 6 for a schematic representation. […] For SWELL1-R103E overexpression experiments, HEK-293 cells were transfected with either control Cre plasmid (CMV-Cre, McDonnell Genome Institute in Washington University in St. Louis) or Cre plus R103E-GFP (CAG-LoxP-stop-LoxP-SWELL1-R103E/3XFlag:P2A:EGFP, Vector Biolabs) plasmid using Lipofectamine 2000 as per the manufacturer’s protocol. SWELL1-R103E expressing HEK-293 cells were identified by EGFP + fluorescence.

[2] = system: SWELL1/LRRC8a-e mRNA in 3T3-F442A cells; assay: qRT-PCR of LRRC8 family mRNA; type: cell-based, murine; details: 10 µM, 96 h
Method: RNA samples were isolated using the PureLink RNA kit (Life Technologies) as per the manufacturer’s instructions. Complementary DNA (cDNA) synthesis was carried out using an iScript Reverse Transcriptase kit (Bio-Rad). […] Each sample measurement was carried out in triplicate. GAPDH was used as the internal standard and the fold change was calculated relative to GAPDH was normalized to vehicle group. The following qRT-PCR primers (5′ to 3′) were used: GAPDH forward—[…] and reverse— […]; SWELL1 forward—[…] and reverse— […]; LRRC8b forward—[…] and reverse— […]; LRRC8c forward—[…] and reverse—[…]; LRRC8d forward—[…] and reverse— […]; LRRC8e forward—[…] and reverse— […], respectively.

HFD-T2D mice = assay: NAFLD in HFD-fed mice: liver triglycerides, histology, NAS; type: in vivo, mouse
Method: Gross liver weights were measured and identical sections from the right medial lobe of the liver were dissected for further examinations. Total triglyceride content was determined by homogenization of 10–50 mg of tissue in 1.5 ml of chloroform:methanol (2:1 v/v) followed by centrifugation at 16,260×g for 10 min at 4 °C. A 20 µl of the supernatant was evaporated in a 1.5 ml microcentrifuge tube for 30 min. Triglyceride content was determined by adding 100 µl of Infinity Triglyceride Reagent (Fisher Scientific) to the dried sample followed by 30 min incubation at RT. The samples were then transferred to a 96-well plate along with standards (0–2000 mg/dl) and absorbance was measured at 540 nm and the final concentration was determined by normalizing to tissue weight. For histological examination, liver sections were fixed in 10% zinc formalin and paraffin-embedded for sectioning. Hematoxylin and eosin (H&E) stained sections were then assessed for steatosis grade, lobular inflammation, and hepatocyte ballooning for nonalcoholic fatty liver disease (NAFLD) scoring[46],[95],[96].

T2D KKAy mice = assay: Plasma adiponectin and FGF21 ELISA; type: in vivo, mouse; details: 5 mg/kg i.p. daily × 5 days, vs vehicle
Method: Plasma adiponectin and FGF21 levels were measured using Mouse Adiponectin/Acrp30 Quantikine ELISA (Bio-Techne R&D Systems, MRP300) and mouse/rat FGF21 ELISA (BioVendor R&D, RD291108200R) kits respectively, as per the manufacturer’s instructions.

## CCCCC1(C2CCCC2)Cc2cc(OCCCC(=O)O)c(Cl)c(Cl)c2C1=O (centres unmarked) [SN-401, 4-((2-butyl-6,7-dichloro-2-cyclopentyl-1-oxo-2,3-dihydro-1H-inden-5-yl)oxy)butanoic acid]
[1]
  IC50: 6 µM
[2]
  SWELL1 and LRRC8b-e mRNA: not associated with increases in SWELL1 mRNA
HFD-T2D mice; 16 weeks HFD then intermittent dosing over 5 weeks
  reduction in body weight compared to vehicle: 14%
HFD-T2D mice; 16 weeks HFD then intermittent dosing over 5 weeks, vs vehicle
  improvement of NAFLD-activity score (NAS): > 2 points
HFD-T2D mice; histologic evaluation, vs vehicle
  hepatic steatosis and hepatocyte damage: significant reductions
HFD-T2D mice; vs vehicle
  hepatic triglyceride concentrations: lower
T2D KKAy mice
  serum FGF21 increase: 2.8 fold and 3 fold
  serum adiponectin: unchanged; also recorded: no differences
